The values below are quoted from earlier work in patent US20220354121A1, “EXTERNALLY HEATED GEL REPELLENT” (Lamplight Farms Incorporated, priority 2021, published 2022).

Molecules are shown by their SMILES.

The subject of this data set is insect. The following applies: release into local atmosphere.

Turning to `C/C=C/C1C(C(=O)OCc2c(F)c(F)c(COC)c(F)c2F)C1(C)C` (stereo not shown) [metofluthrin], the “metofluthrin release known to be sufficient for local repellency purposes” value was 7 to 12 mg/h.
